Laboratory results from patent US20220249599A1, “TREATMENT OF IMPLANTS WITH ENGINEERED ANTIMICROBIAL AMPHIPHILIC PEPTIDES” (priority 2018, published 2022).
In brackets after ≈: the same amount, converted by molar mass. Several values for one entry are separate records, joined by “and”; a condition that tells them apart may be missing. Equal entries are not always repeated. Where two headings read alike, the source gives them in different places. Bridge positions count the residues as written; N and C are the ends. Square brackets hold non-standard residues; d marks the D form. Ends that are not written are not given here. Peptide text beside a SMILES is read from it. * marks the point of attachment. X1 = CC[C@H](C)CCCCC(=O)*; Dab = NCC[C@H](N)C(=O)O

Columns and labels:
[1] = macaques, 1.0 mg/kg, 30 min IV infusion, one line per individual monkey (4000, 4001, 4002)
Method: Animals will be obtained from the Test Facility's colony of adult male cynomolgous monkeys (Macaca fascicularis) of Chinese origin. Animals will be weighed prior to dosing.
Intravenous administration will be via 30 minute infusion into a temporary percutaneous catheter placed into a saphenous vein. Prior to and following dose administration, the catheter will be flushed with 0.5 mL saline prior to removal. All dosing syringes will be weighed prior to and following dosing.
Serial blood samples will be collected via femoral vein (cephalic or saphenous, as necessary). Approximately 1 mL blood samples will be collected into K2EDTA tubes.
Blood samples will be collected into K2EDTA tubes and stored on wet ice. Whole blood will be processed to plasma by centrifugation (2400-2700 rpm at 5° C.) within 30 minutes of collection. Plasma samples will be split into 2 equal aliquots and stored at −80° C. until analysis.
The peptide will be purified from plasma samples from each macaque using a cation exchange-based solid-phase extraction process. Prior to extraction, a known concentration of a mass-adjusted internal standard (IS) will be added to assess recovery and allow for quantitation. Purified samples will be further subjected to high-performance liquid chromatography (HPLC) using C18 300 or 130 angstrom columns prior to MS/MS analysis. Multiple charge states will be observed by MS, so MS/MS will be employed to enable multiple reaction monitoring (MRM) analyses to determine the most MRM transitions with the highest signal-to-noise gain. Compound plasma concentrations will be determined by comparing to and compensating with co-purified IS peak intensity and validated calibrated standard curves.
Toxicokinetic parameters will be calculated using non-compartmental methods as implemented in the Phoenix® WinNonlin® ver. 6.3 comprehensive TK/PK analysis software program (Pharsight Corporation; Mountain View, Calif.) using an IV infusion model. […] Values below the lower limit of quantitation (BLQ) will be assigned a value of zero for the toxicokinetic calculations. […]

[2] = test system: Staphylococcus aureus ATCC 29213 (MSSA; QC); conditions: cited from earlier work
[3] = test system: Acinetobacter baumannii ATCC BAA-1797 (MDR); experiment: microbe, parasite or virus in culture; format: cell-based; conditions: Acinetobacter baumannii ATCC BAA-1797 (MDR)
Method: (§1) Each peptide was formulated in PBS buffer prior to testing. Peptides of SEQ ID NO:5 and SEQ ID NO:8 were brought up in 100% DMSO with 0.002% polysorbate-80 at 1.28 mg/mL (40× the highest final test concentration of 32 mcg/mL). Final test concentration of DMSO was 2.5% in the assay at the first dilution for those two compounds.
(§2) Mueller Hinton II broth (MHB II; BD; Lot Nos. 6258541 and 7143896) was used for MIC testing of aerobic organisms. 0.002% polysorbate 80 (P80) was added to the test medium.
(§3) MIC values were determined using a broth microdilution procedure described by CLSI (1, 3). Automated liquid handlers (Multidrop 384, Labsystems, Helsinki, Finland; Biomek 2000 and Biomek FX, Beckman Coulter, Fullerton Calif.) were used to conduct serial dilutions and liquid transfers.
(§4) To prepare the drug mother plates, which would provide the serial peptide dilutions for the replicate daughter plates, the wells of columns 2-12 of standard 96-well microdilution plates (Costar 3795) were filled with 150 µl of the designated diluent for each row of peptide.
(§5) The test articles and comparator compounds ([…] at 40× the highest concentration to be tested) were dispensed into the appropriate wells in column 1. The Biomek 2000 was then used to make 2-fold serial dilutions in the mother plates from column 1 through column 11. The wells of Column 12 contained no drug and served as the organism growth control wells for the assay.
(§6) The daughter plates were loaded with 185 μL per well of MHB II using the Multidrop 384. The daughter plates were completed on the Biomek FX instrument which transferred 5 uL of peptide solution from each well of a mother plate to the corresponding well of each daughter plate in a single step. A standardized inoculum of each test organism was prepared per CLSI methods. The inoculum for each organism was dispensed into sterile reservoirs divided by length (Beckman Coulter), and the Biomek 2000 was used to inoculate the plates. Daughter plates were placed on the Biomek 2000 work surface in reverse orientation so that inoculation took place from low to high drug concentration.
(§7) Plates were stacked 3-4 high, covered with a lid on the top plate, placed in plastic bags, and incubated at 35° C. for 16 to 20 hrs. Following incubation, the microplates were removed from the incubator and viewed from the bottom using a plate viewer. […] The MIC was read and recorded as the lowest concentration of peptide that inhibited visible growth of the organism.

[4] = test system: Streptococcus pneumoniae ATCC 49619 (QC); conditions: cited from earlier work
[5] = test system: Enterobacter spp. (n = 102); format: cell-based, Enterobacter aerogenes and E. cloacae; conditions: Enterobacter spp. (n = 102); for % R (isolates resistant): CLSI breakpoints, colistin EUCAST
Method: (§8) The clinical isolates were obtained from USA hospitals. […] Plates were incubated at 35° C. overnight.

[6] = test system: Escherichia coli (n = 101); format: cell-based; conditions: Escherichia coli (n = 101); for % R (isolates resistant): CLSI breakpoints, colistin EUCAST
Method: as §8

[7] = test system: Klebsiella pneumoniae (n = 101); format: cell-based; conditions: Klebsiella pneumoniae (n = 101); for % R (isolates resistant): CLSI breakpoints, colistin EUCAST
Method: as §8

[8] = test system: Acinetobacter spp. (n = 104); format: cell-based; conditions: Acinetobacter spp. (n = 104); for % R (isolates resistant): CLSI breakpoints
Method: as §8

[9] = test system: Pseudomonas aeruginosa (n = 109); format: cell-based; conditions: Pseudomonas aeruginosa (n = 109); for % R (isolates resistant): CLSI breakpoints
Method: as §8

[10] = test system: Pseudomonas aeruginosa ATCC 27853 (non-MDR; QC); conditions: cited from earlier work
[11] = test system: Enterococcus faecalis ATCC 29212 (VSE; QC); conditions: cited from earlier work
[12] = test system: Escherichia coli ATCC 25922 (QC); conditions: cited from earlier work
S. aureus = experiment: Periprosthetic joint infection mouse model, implant biofilm CFU burden; format: in vivo; conditions: intraperitoneal delivery, versus untreated control mice
Method: Periprosthetic joint infection was modeled in a mouse by placing an intra-articular K-wire through the medullary canal of the proximal femur followed by intra-articular inoculation with S. aureus. Animals were treated systemically with an intraperitoneal delivery of cefazolin, rifampin, or the exemplary peptide of SEQ ID NO:1. Intraperitoneal delivery was chosen due to technical difficulties associated with intravenous delivery. Implant sonication and proximal femur homogenate were used to quantify viable bacteria.

[13] = test system: S. aureus strain SH1000 biofilms; experiment: In vitro biofilm disruption on stainless steel rods; format: cell-based; conditions: S. aureus SH1000, 10×MIC, up to 24 hours
From the text: FIG. 15 depicts the effect of administration of SEQ ID NO:1 and cefazolin on biofilm maintenance. […] SEQ ID NO:1 eliminated mature implant biofilms on a model strain of S. aureus, SH1000.

[14] = test system: Streptococcus agalactiae ATCC 13813; format: cell-based
Method: as §1, §2, §3, §4, §5, §6, §7

[15] = test system: Escherichia coli ATCC 25922 (QC); format: cell-based; conditions: Escherichia coli ATCC 25922 (QC)
Method: as §1, §2, §3, §4, §5, §6, §7

[16] = test system: Staphylococcus aureus ATCC 43300 (MRSA); format: cell-based; conditions: Staphylococcus aureus ATCC 43300 (MRSA)
Method: as §1, §2, §3, §4, §5, §6, §7

[17] = test system: Enterococcus faecalis ATCC 700802 (V583 VRE); format: cell-based; conditions: Enterococcus faecalis ATCC 700802 (V583 VRE)
Method: as §1, §2, §3, §4, §5, §6, §7

[18] = test system: Streptococcus pyogenes ATCC 49399; format: cell-based; conditions: Streptococcus pyogenes ATCC 49399
Method: as §1, §2, §3, §4, §5, §6, §7

[19] = test system: Acinetobacter baumannii ATCC 19606 (non-MDR); format: cell-based; conditions: Acinetobacter baumannii ATCC 19606 (non-MDR)
Method: as §1, §2, §3, §4, §5, §6, §7

[20] = test system: Escherichia coli ATCC BAA-2471 (NDM-1); format: cell-based; conditions: Escherichia coli ATCC BAA-2471 (NDM-1)
Method: as §1, §2, §3, §4, §5, §6, §7

[21] = test system: Pseudomonas aeruginosa ATCC BAA-2109 (MDR); format: cell-based; conditions: Pseudomonas aeruginosa ATCC BAA-2109 (MDR)
Method: as §1, §2, §3, §4, §5, §6, §7

[22] = test system: Enterococcus faecalis ATCC 29212 (VSE; QC); format: cell-based; conditions: Enterococcus faecalis ATCC 29212 (VSE; QC)
Method: as §1, §2, §3, §4, §5, §6, §7

[23] = test system: Pseudomonas aeruginosa ATCC 27853 (non-MDR; QC); format: cell-based; conditions: Pseudomonas aeruginosa ATCC 27853 (non-MDR; QC)
Method: as §1, §2, §3, §4, §5, §6, §7

[24] = test system: Staphylococcus aureus ATCC 29213 (MSSA; QC); format: cell-based; conditions: Staphylococcus aureus ATCC 29213 (MSSA; QC)
Method: as §1, §2, §3, §4, §5, §6, §7

[25] = test system: Escherichia coli ATCC 35218 (ESBL); format: cell-based; conditions: Escherichia coli ATCC 35218 (ESBL)
Method: as §1, §2, §3, §4, §5, §6, §7

[26] = test system: Streptococcus pneumoniae ATCC 49619 (QC); format: cell-based; conditions: Streptococcus pneumoniae ATCC 49619 (QC)
Method: as §1, §2, §3, §4, §5, §6, §7

[27] = test system: Enterococcus faecium ATCC 51559 (VRE); format: cell-based; conditions: Enterococcus faecium ATCC 51559 (VRE)
Method: as §1, §2, §3, §4, §5, §6, §7

[28] = test system: Staphylococcus aureus NRS382 (USA100; HA-MRSA); format: cell-based; conditions: Staphylococcus aureus NRS382 (USA100; HA-MRSA)
Method: as §1, §2, §3, §4, §5, §6, §7

[29] = test system: Klebsiella pneumoniae ATCC BAA-1705 (KPC); format: cell-based; conditions: Klebsiella pneumoniae ATCC BAA-1705 (KPC)
Method: as §1, §2, §3, §4, §5, §6, §7

[30] = test system: P. aeruginosa strains (PAO1 and 2 clinical isolates); format: cell-based; conditions: three P. aeruginosa strains, 0.5×MIC exposure
From the text: Each antibiotic was compared for their propensity to select for bacterial resistance phenotypes in vitro.

## KKTHTKTKKTHTKTKKTHTK [SEQ ID NO: 13]
[1]
  Dose Normalized Cmax: 5000 and 7000 and 6000

## C[C@@H](O)[C@H]1C(=O)N2C(C(=O)O)=C(S[C@@H]3CN[C@H](C(=O)N(C)C)C3)[C@H](C)[C@H]12 [Meropenem]
[2]
  MIC range in parentheses below the MIC (QC range): (0.03-0.12) μg/mL
[3]; ATCCBAA1797, read-out: MIC
  MIC: > 4 µg/mL
[4]
  MIC range in parentheses below the MIC (QC range): (0.03-0.25) μg/mL
[5]
  % R (isolates resistant): 3.9%
[6]
  % R (isolates resistant): 1%
[7]
  % R (isolates resistant): 50.5%
[8]
  % R (isolates resistant): 65.4%
[9]
  % R (isolates resistant): 20.2%
[9]; listed as meropenem
  % R (isolates resistant): 20%
[10]
  MIC range in parentheses below the MIC (QC range): (0.12-1) μg/mL
[11]
  MIC range in parentheses below the MIC (QC range): (2-8) μg/mL
[12]
  MIC range in parentheses below the MIC (QC range): (0.008-0.06) μg/mL

## Cc1nnc(SCC2=C(C(=O)O)N3C(=O)[C@@H](NC(=O)Cn4cnnn4)[C@H]3SC2)s1 [Cefazolin, cefazolin]
S. aureus
  Reduction of implant biofilm CFU burden (sonicate culture): one log reduction in viable bacteria as compared to untreated controls, but this reduction was not statistically significant
[13]
  Reduction of mature biofilm on stainless steel rods: did not achieve a three-log reduction

## CC[C@H](C)CCCCC(=O)N[C@@H](CCN)C(=O)N[C@H](C(=O)N[C@@H](CCN)C(=O)N[C@H]1CCNC(=O)[C@H]([C@@H](C)O)NC(=O)[C@H](CCN)NC(=O)[C@H](CCN)NC(=O)[C@H](CC(C)C)NC(=O)[C@@H](CC(C)C)NC(=O)[C@H](CCN)NC1=O)[C@@H](C)O [Colistin, reference compound] (X1-[Dab]T[Dab][Dab][Dab][dL]L[Dab][Dab]T; lactam 4-C)
[3]
  MIC: 0.5 µg/mL (≈ 0.428 µM)
[5]
  MIC50: 0.12 µg/mL (≈ 0.103 µM)
  MIC90: 0.25 µg/mL (≈ 0.214 µM)
  Mode (MIC): 0.12 µg/mL
  % R (isolates resistant): 5.8%
[14]
  MIC: >32 µg/mL
[15]
  MIC: 0.12 µg/mL (≈ 0.103 µM)
[16]
  MIC: >32 µg/mL
[17]
  MIC: >32 µg/mL
[18]
  MIC: >32 µg/mL
[19]
  MIC: 0.25 µg/mL (≈ 0.214 µM)
[20]
  MIC: 0.06 µg/mL (≈ 0.0513 µM)
[21]
  MIC: 0.12 µg/mL (≈ 0.103 µM)
[22]
  MIC: >32 µg/mL
[23]
  MIC: 0.25 µg/mL (≈ 0.214 µM)
[24]
  MIC: >32 µg/mL
[25]
  MIC: 0.12 µg/mL (≈ 0.103 µM)
[26]
  MIC: >32 µg/mL
[27]
  MIC: >32 µg/mL
[28]
  MIC: >32 µg/mL
[29]
  MIC: 0.12 µg/mL (≈ 0.103 µM)
[6]
  MIC50: 0.12 µg/mL (≈ 0.103 µM)
  MIC90: 0.12 µg/mL (≈ 0.103 µM)
  MIC range: ≤0.03 to 0.5 µg/mL
  Mode (MIC): 0.12 µg/mL
  % R (isolates resistant): 0%
[7]
  MIC50: 0.12 µg/mL (≈ 0.103 µM)
  MIC90: 32 µg/mL (≈ 27.4 µM)
  Mode (MIC): 0.12 µg/mL
  % R (isolates resistant): 27.7%
[8]
  MIC50: 0.25 µg/mL (≈ 0.214 µM)
  MIC90: >32 µg/mL
  Mode (MIC): 0.25 µg/mL
  % R (isolates resistant): 20.2%
[9]
  MIC50: 0.5 µg/mL (≈ 0.428 µM)
  MIC90: 1 µg/mL (≈ 0.855 µM)
  Mode (MIC): 0.5 µg/mL
  % R (isolates resistant): 7.3%
[10]
  MIC range in parentheses below the MIC (QC range): (0.5-4) μg/mL
[12]
  MIC range in parentheses below the MIC (QC range): (0.25-2) μg/mL
[30]
  Time to development of resistance (fold MIC>10): 13 days
